# In ChEMBL document CHEMBL4354827, “Discovery of Novel, Potent, Brain-Permeable, and Orally Efficacious Positive Allosteric Modulator of α7 Nicotinic Acetylcholine Receptor [4-(5-(4-Chlorophenyl)-4-methyl-2-propionylthiophen-3-yl)benzenesulfonamide]: Structure-Activity Relationship and Preclinical Characterization” (J Med Chem, 2020):
# Key:
# [1] = Drug metabolism in human pooled liver microsomes assessed as metabolic rate at 1 uM preincubated for 5 mins followed by NADPH addition after 30 mins by LC-MS/MS analysis; assay type: ADME, Microsome; conditions: 0.5 h
# [2] = Metabolic stability in dog liver microsomes assessed as compound remaining at 1 uM preincubated for 5 mins followed by NADPH addition and measured after 30 mins by LC-MS/MS analysis; assay type: ADME, Canis lupus familiaris, Microsome; conditions: read-out: Stability
# [3] = Protein binding in human plasma at 5 uM incubated for 16 hrs under shaking condition by LC/MS/MS based rapid equilibrium dialysis method; assay type: ADME, cell-free; conditions: read-out: PPB (converted)
# [4] = Protein binding in human plasma assessed as unbound fraction at 5 uM incubated for 16 hrs under shaking condition by LC/MS/MS based rapid equilibrium dialysis method; assay type: ADME, cell-free
# [5] = AUC (0 to 144 hrs) in Wistar rat at 1 mg/kg, iv after 0.083 to 144 hrs by LC-MS/MS analysis; assay type: ADME, organism-based; set-up: time < 144 hr, dose 1 mg/kg, route intravenous; conditions: in vivo
# [6] = Cmax in Wistar rat at 1 mg/kg, iv after 0.083 to 144 hrs by LC-MS/MS analysis; assay type: ADME, organism-based; set-up: dose 1 mg/kg, route intravenous; conditions: in vivo
# [7] = Cmax in BALB/c mouse at 1 mg/kg, iv after 0.083 to 144 hrs by LC-MS/MS analysis; assay type: ADME, organism-based; set-up: dose 1 mg/kg, route intravenous; conditions: in vivo
# [8] = Tmax in Wistar rat at 1 mg/kg, iv after 0.083 to 144 hrs by LC-MS/MS analysis; assay type: ADME, organism-based; conditions: in vivo
# [9] = Half life in Wistar rat at 1 mg/kg, iv after 0.083 to 144 hrs by LC-MS/MS analysis; assay type: ADME, organism-based; conditions: in vivo
# [10] = Volume of distribution at steady state in BALB/c mouse at 1 mg/kg, iv after 0.083 to 144 hrs by LC-MS/MS analysis; assay type: ADME, organism-based; conditions: in vivo, read-out: Vdss
# [11] = Oral bioavailability in Wistar rat at 10 mg/kg after 0.25 to 144 hrs by LC-MS/MS analysis; assay type: ADME, organism-based; conditions: in vivo
# [12] = Drug concentration in Wistar rat plasma at 10 mg/kg, po after 4 hrs by LC-MS/MS analysis; assay type: ADME, organism-based
# [13] = Brain to plasma permeability coefficient, Kp in Wistar rat at 10 mg/kg, po after 1 hr by LC-MS/MS analysis; assay type: ADME, organism-based
# [14] = Brain to plasma permeability coefficient, Kp in Wistar rat at 10 mg/kg, po after 8 hrs by LC-MS/MS analysis; assay type: ADME, organism-based
# [15] = Unbound brain-to-plasma concentration ratio in Wistar rat at 10 mg/kg, po after 1 hr by LC-MS/MS analysis; assay type: ADME, organism-based; conditions: read-out: K(p,uu,brain)
# [16] = Unbound brain-to-plasma concentration ratio in Wistar rat at 10 mg/kg, po after 8 hrs by LC-MS/MS analysis; assay type: ADME, organism-based; conditions: read-out: K(p,uu,brain)
# [17] = Unbound brain-to-plasma concentration ratio in Wistar rat at 10 mg/kg, po after 24 hrs by LC-MS/MS analysis; assay type: ADME, organism-based; conditions: read-out: K(p,uu,brain)
# [18] = Cmax in Wistar rat plasma at 10 mg/kg, po after 1 to 144 hrs by LC-MS/MS analysis; assay type: ADME, organism-based; set-up: dose 10 mg/kg, route oral
# Rattus norvegicus [19] = experiment: Memory enhancement effect in time-delay induced Wistar rat model of amnesia assessed as exploration time for object1 in acquisition trial at 3 mg/kg, po administered as single dose and measured on day 8 by novel object recognition test (reference value: 13.95 sec); assay type: functional
# Rattus norvegicus [20] = experiment: Memory enhancement effect in time-delay induced Wistar rat model of amnesia assessed as increase in exploration time for novel object in retention trial at 3 mg/kg, po administered as single dose and measured on day 9 by novel object recognition test (reference value: 12.06 sec); assay type: functional
# Rattus norvegicus [21] = experiment: Memory enhancement effect in time-delay induced Wistar rat model of amnesia assessed as exploration time for object1 in acquisition trial at 1 mg/kg, po administered as single dose and measured on day 8 by novel object recognition test (reference value: 13.95 sec); assay type: functional
# Rattus norvegicus [22] = experiment: Memory enhancement effect in scopolamine-induced Wistar rat model of amnesia assessed as increase in exploration time for novel object in retention trial at 0.5 mg/kg, po administered as single dose and measured on day 9 by novel object recognition test (reference value: 12.09 sec); assay type: functional
# Rattus norvegicus [23] = experiment: Memory enhancement effect in scopolamine-induced Wistar rat model of amnesia assessed as increase in novel object discrimination index at 0.15 mg/kg, po administered as single dose and measured on day 9 by novel object recognition test (reference value: 0.21); assay type: functional
# Rattus norvegicus [24] = experiment: Memory enhancement effect in time-delay induced Wistar rat model of amnesia assessed as exploration time for familiar object at 3 mg/kg, po administered as single dose after acquisition trial by novel object recognition test (reference value: 10.6 sec); assay type: functional
# Rattus norvegicus [25] = experiment: Memory enhancement effect in time-delay induced Wistar rat model of amnesia assessed as increase in novel object discrimination at 3 mg/kg, po administered as single dose after acquisition trial by novel object recognition test (reference value: 0.08); assay type: functional
# Rattus norvegicus [26] = experiment: Memory enhancement effect in time-delay induced Wistar rat model of amnesia assessed as exploration time for novel object in retention trial at 0.15 mg/kg, po for 7 days and measured on day 8 by novel object recognition test (reference value: 15.37 sec); assay type: functional
# Rattus norvegicus [27] = experiment: Memory enhancement effect in time-delay induced Wistar rat model of amnesia assessed as exploration time for familiar object in retention trial at 0.5 mg/kg, po for 7 days and measured on day 8 by novel object recognition test (reference value: 10.20 sec); assay type: functional
# Rattus norvegicus [28] = experiment: Memory enhancement effect in time-delay induced Wistar rat model of amnesia assessed as increase in discrimination index at 0.5 mg/kg, po for 7 days and measured on day 8 by novel object recognition test (reference value: 0.12); assay type: functional
# Rattus norvegicus [29] = experiment: Memory enhancement effect in scopolamine-induced Wistar rat model of amnesia assessed as increase in discrimination index at 0.15 mg/kg, po for 7 days and measured on day 8 by novel object recognition test (reference value: 0.21); assay type: functional
# Rattus norvegicus [30] = experiment: Improvement in social recognition scopolamine-induced Sprague-Dawley rat model of amnesia assessed as reduction in recognition index 3 mg/kg, po administered as single dose prior to 1 hr training and measured after 30 mins (reference value: 0.9); assay type: functional
# Rattus norvegicus [31] = experiment: Improvement in social recognition time delay-induced Sprague-Dawley rat model of amnesia assessed as increase in reduction in social investigation time at 0.15 mg/kg, po for 7 days and measured on day 9 (reference value: -0.5%); assay type: functional; set-up: scale not given: the % may be the effect or the level left
# Rattus norvegicus [32] = experiment: Improvement in social recognition time delay-induced Sprague-Dawley rat model of amnesia assessed as reduction in recognition index at 0.15 mg/kg, po for 7 days and measured on day 9 (reference value: 1.05); assay type: functional
# [33] = Drug level in scopolamine-induced Sprague-Dawley rat plasma at 0.15 mg/kg, po for 7 days; assay type: ADME, organism-based
# [34] = Drug level in scopolamine-induced Sprague-Dawley rat plasma at 0.5 mg/kg, po for 7 days; assay type: ADME, organism-based
# [35] = Cmax in human at 7.5 to 100 mg after 1 to 2.5 hrs; assay type: ADME; conditions: in vivo
# [36] = AUC(0 to infinity) in human at 7.5 to 100 mg; assay type: ADME
compound,measurement,setting,value
CCC(=O)c1sc(-c2ccc(Cl)cc2)c(C)c1-c1ccc(S(N)(=O)=O)cc1,Drug metabolism,[1],0.01 nmol/min/mg
same,"remaining at 0.5 h, 1 µM",[2],93%
same,"fraction unbound at 16 h, 5 µM",[3],0.0015
same,"fraction unbound at 16 h, 5 µM",[4],0.0015
same,AUC(0-t) at 144 h,[5],27 µM·h
same,Cmax,[6],1100 nM
same,Cmax,[7],900 nM
same,Tmax,[8],4.8 min
same,half-life,[9],45 h
same,Vd,[10],4 L/kg
same,bioavailability,[11],74%
same,concentration at 4 h,[12],850 nM
same,Kp at 1 h,[13],4.63
same,Kp at 8 h,[14],7.7
same,Kp uu at 1 h,[15],0.56
same,Kp uu at 8 h,[16],0.93
same,Kp uu at 24 h,[17],1.07
same,Cmax,[18],900 nM
same,Time,Rattus norvegicus [19],25.56 s
same,Time,Rattus norvegicus [20],26.25 s
same,Time,Rattus norvegicus [21],23.61 s
same,Time,Rattus norvegicus [22],15.06 s
same,Activity_index,Rattus norvegicus [23],0.5
same,Time,Rattus norvegicus [24],5.9 s
same,Activity_index,Rattus norvegicus [25],0.5
same,Time,Rattus norvegicus [26],7.15 s
same,Time,Rattus norvegicus [27],4.9 s
same,Activity_index,Rattus norvegicus [28],0.58
same,Activity_index,Rattus norvegicus [29],0.5
same,Activity_index,Rattus norvegicus [30],0.45
same,Activity,Rattus norvegicus [31],43.63%
same,Activity_index,Rattus norvegicus [32],0.56
same,concentration at 168 h,[33],180 nM
same,concentration at 168 h,[34],580 nM
same,Cmax,[35],25.1 to 1620 ng/mL
same,AUC(0-inf),[36],261 to 24100 ng·h/mL
